# “And” between values parts separate entries of the source, which are not always exact repeats. Equal values may be shown once.
# Biological target: Transforming acidic coiled-coil-containing protein 3 (Homo sapiens) (UniProt Q9Y6A5)
# Assay: inhibition of ARNT PAS-B/TACC3 complex formation – biochemical, AlphaScreen, cherry-picked samples, confirmation (AID 651703);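 note: TACC3 partner is the GST-tagged E629A mutant dimer; hits lower the signal meaning they disrupt ARNT binding to TACC3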
# Details: AlphaScreen His-ARNT PAS-B / GST-TACC3 binding, luminescence
row,Compound,AC50
1,O=C(CSc1nnc(-c2ccccn2)o1)Nc1ccccc1F,13 µM
2,CC(C)(C)CCNc1nc(-c2ccccn2)nnc1-c1ccccc1,0.717 µM and < 0.5 µM
3,CCCN(CCC)c1nc(-c2ccccn2)nc2ccccc12,15.5 µM
4,Cc1cccc(OCc2nc(-c3ccccn3)n[nH]2)c1,5.94 µM
5,O=C(O)c1cc2c(cn1)[nH]c1ccccc12,1.8 µM
6,Cc1ccc(C)c(S(=O)(=O)N2CCCOC2CNC(=O)C(=O)NCCCn2ccnc2)c1 (configuration not stated),4.16 µM
7,O=C(CN1C(=O)COc2ccccc21)Nc1ccc(F)cc1,3.96 µM
8,Cc1ncc(CO)c(/C=N/NC(=O)c2cc(Br)ccc2O)c1O,8.86 µM
9,O=C(CN1C(=O)C2C3C=CC(C3)C2C1=O)Nc1nc(-c2ccccn2)cs1 (configuration not stated),6.76 µM
10,O=C(NCCCn1ccnc1)C(=O)NCC1OCCN1S(=O)(=O)c1ccccc1 (configuration not stated),6.92 µM
11,c1ccc(-c2nnc(SCc3nc4ccccc4[nH]3)n2Cc2ccco2)nc1,19.8 µM
12,Cc1c(CCO)c(=O)n(-c2ccccc2)n1S(=O)(=O)c1c(Cl)cc(Cl)cc1Cl,39.8 µM
13,O=C(CN1C(=O)CCC1=O)Nc1nc(-c2ccccn2)cs1,4.39 µM
14,CCN(CC)c1ccc(C(=C2C=CC(=[N+](CC)CC)C=C2)c2ccc(N(CC)CC)cc2)cc1,0.734 µM
15,O=C(N/N=C/c1cccc2nccnc12)c1ccccc1O,4.77 µM
16,O=C(COc1ccccc1)Nc1nnc(-c2ccco2)o1,36.6 µM
17,COc1cccc(/C=N/NC(=O)c2ccc3nc[nH]c3c2)c1O,23.3 µM
18,c1ccc(-c2nnc(Nc3nc(-c4ccccn4)nnc3-c3ccccc3)s2)cc1,1.74 µM
19,COC(=O)Cc1cc(=O)n(-c2nc3ccccc3[nH]2)[nH]1,2.68 µM
20,O=C(Nc1nnc(C2=COCCO2)o1)c1ccc(Cl)cc1,17.7 µM
21,O=C(N[C@H]1CC[C@@H](CCn2cc(-c3ccccn3)nn2)O[C@@H]1CO)c1ccc(F)cc1,14.8 µM
22,COc1ccc(Cc2nnc(NN)[nH]c2=O)cc1OC,6.72 µM
23,CN1CCc2c(sc3c2C(=O)NC(c2ccccn2)N3)C1 (configuration not stated),5.51 µM
24,CSCCC(=O)Nc1nc(-c2ccccn2)cs1,8.98 µM

row,Compound,AC50
1,OCCCNc1nc(-c2ccccn2)nnc1-c1ccccc1,< 0.5 µM
2,Cn1c(-c2ccccc2)cnc1N,37.5 µM
3,O=C(N[C@H]1CC[C@@H](CCn2cc(-c3ccccn3)nn2)O[C@H]1CO)c1cccnc1,8.65 µM
4,N[C@@H]1CC[C@H](CCn2cc(-c3ccccn3)nn2)O[C@H]1CO,1.13 µM
5,COc1ccc(NC(=O)N[C@H]2CC[C@@H](CCn3cc(-c4ccccn4)nn3)O[C@H]2CO)cc1,17 µM
6,O=S(=O)(N[C@@H]1CC[C@H](CCn2cc(-c3ccccn3)nn2)O[C@H]1CO)c1cccc(Cl)c1,22 µM
7,Oc1ccc(CNC2CCc3ccccc32)c2cccnc12 (configuration not stated),1.22 µM
8,Cc1cc(NC(c2ccc(Cl)cc2)c2ccc3cccnc3c2O)no1 (configuration not stated),10.2 µM
9,COc1cc(OC)c2c(-c3ccccc3)cc(=O)oc2c1C(CCN1CCCCC1)c1ccc(N(C)C)cc1 (configuration not stated),7.83 µM
10,COCCN=c1scc(-c2ccco2)n1/N=C/c1ccc(O)c(O)c1O,9.77 µM
11,Nc1nc(-c2ccccn2)nc(N)c1Cc1ccccc1F,3.39 µM
12,CCc1cc2c(=O)[nH]c(-c3ccccn3)nc2s1,2.86 µM
13,O=C(Oc1ccc(Cl)c2cccnc12)c1cccnc1,9.58 µM
14,O=C(CSc1n[nH]c(-c2ccccn2)n1)Nc1cccc(Cl)c1,4.78 µM
15,Cc1ccc2ccc3cccnc3c2n1,7.33 µM
16,O=C(Cn1cnc([N+](=O)[O-])n1)N/N=C/c1ccc(O)cc1O,4.97 µM
17,O=C(COC(=O)c1ccccn1)c1cccc(Br)c1,11.8 µM
18,c1ccc(-c2nc3ccccn3c2NC2CCCC2)nc1,13.9 µM
19,O=S(=O)(c1ccc(Br)cc1)c1nc(-c2ccco2)oc1NCCCn1ccnc1,33.9 µM
20,O=C(Nc1nccs1)c1cnccn1,63.9 µM
21,O=C(CN1C(=O)/C(=C\c2cccs2)SC1=S)Nc1cccc(C(=O)O)c1,26.3 µM
22,O=S(=O)(N[C@H]1CC[C@H](CCn2cc(-c3ccccn3)nn2)O[C@H]1CO)c1cccc(F)c1,21.8 µM
23,CCN(CC)C(=O)c1sc2nc(-c3ccccn3)[nH]c(=O)c2c1C,10.5 µM
24,COc1cccc(C(=O)Nc2nnc(-c3cccs3)o2)c1,21.4 µM

row,Compound,AC50
1,Cc1nnc(-c2ccccc2)c(=O)n1/N=C/c1c(O)ccc2ccccc12,49.2 µM
2,CN(C)CCCNc1cc(O)c2ncccc2c1,0.583 µM
3,O=C(Nc1nnc(-c2cccs2)o1)c1ccc(S(=O)(=O)N2CCOCC2)cc1,17.1 µM
4,Nn1c(SCC(=O)Nc2ccc3c(c2)OCCO3)nnc1-c1ccccn1,18.6 µM
5,c1ccc(-c2nc3ccccc3[nH]2)nc1,44 µM
6,CCOc1ccccc1C(=O)OCC(=O)Nc1nnc(-c2ccccc2)o1,23.3 µM
7,O=C(Nc1nnc(-c2ccccc2Cl)o1)c1cccnc1,15.8 µM
8,Nc1ncnc(Oc2cccc3cccnc23)c1[N+](=O)[O-],11.1 µM
9,O=C(CCS(=O)(=O)c1ccccc1)Nc1nc(-c2ccccn2)cs1,11.2 µM
10,Cc1sc2ncnc(N/N=C/c3ccccc3O)c2c1C,10.1 µM
11,COc1cccc(CNC(=O)CSc2ccc(-c3ccccn3)nn2)c1,4.03 µM
12,CN1CC[C@@]2(C)c3cc(O)ccc3N(C)[C@@H]12,60.1 µM
13,COCCn1c(-c2ccccc2)cnc1N,31.1 µM
14,c1ccc(CCNc2nc(-c3ccccn3)nnc2-c2ccccc2)cc1,0.513 µM
15,COc1cccc(/C=N/Nc2nc3ccccc3[nH]2)c1O,26.6 µM
16,O=S(=O)(N[C@H]1CC[C@@H](CCn2cc(-c3ccccn3)nn2)O[C@@H]1CO)c1cccc(Cl)c1,16.9 µM
17,CC(=O)c1cccc(-c2ccc3c(=O)[nH]c(Nc4ccccc4)cc3c2)c1,23.1 µM
18,C[C@H](Nc1nc(-c2ccccn2)nnc1-c1ccccc1)C1CCCCC1,0.53 µM
19,O=C(CSc1ccc(-c2ccccn2)nn1)Nc1cccc(F)c1,1.16 µM
20,O=C(CSc1ccc2nnc(-c3ccccn3)n2n1)Nc1nccs1,11.2 µM
21,COc1ccc(NC(=O)CSc2n[nH]c(-c3ccccn3)n2)cc1,0.963 µM
22,Cc1ccc(C(=O)Nc2nc(-c3ccccn3)cs2)cc1S(=O)(=O)N1CCOCC1,2.37 µM
23,CC(=O)N1CCc2[nH]c3ccc(C)cc3c2C1,13.9 µM
24,N[C@@H]1CC[C@@H](CCn2cc(-c3ccccn3)nn2)O[C@H]1CO,0.565 µM

row,Compound,AC50
1,COc1ccc(C(=O)Oc2cccc3cccnc23)cc1[N+](=O)[O-],15 µM
2,CCCCCC/C=N/Nc1nnc(Cc2ccc(OC)c(OC)c2)c(=O)[nH]1,25.1 µM
3,O=c1cc(-c2ccc(O)cc2)oc2c(O)c(O)c(O)c(O)c12,63 µM
4,COc1cc(CCNc2ccc3nnc(-c4ccccc4)n3n2)cc(OC)c1OC,10.6 µM
5,Oc1ccc(Cl)cc1CNc1cccc2cccnc12,54.8 µM
6,COc1cc(/C=N/Nc2nn3cnnc3c3ccccc23)ccc1O,6.83 µM
7,N#CC1(c2ccccc2)CCN(Cc2ccc(O)c3ncccc23)CC1,3.66 µM
8,Cc1ccc(S(=O)(=O)NC(=O)c2cc(C)n(CCCn3ccnc3)c2C)cc1,21.2 µM
9,O=C(Nc1ccc(Cl)cc1)O/N=C(\c1ccccc1)c1ccccn1,17.6 µM
10,COc1ccc(S(=O)(=O)n2oc(=O)cc2-c2ccccc2)cc1OC,2.6 µM
11,COc1cccc(/C=N/Nc2ccnc(=O)[nH]2)c1O,9.05 µM
12,Cc1ccc(Cn2cccc(NS(C)(=O)=O)c2=O)cc1,64.7 µM
13,O=C(NCCCNCCCNC(=O)c1ccc(/C=N/O)nc1)c1ccc(/C=N/O)nc1,4.96 µM
14,CO[C@@H]1CN(C)C(=O)c2cc(NS(=O)(=O)CC(F)(F)F)ccc2OC[C@@H](C)N(C(=O)c2ccc3c(c2)OCO3)C[C@@H]1C,58 µM
15,O=C(NC[C@@H]1[C@H](c2ccccc2)[C@H](CO)N1Cc1ccccn1)C1CC1,59.6 µM
16,O=c1[nH]c(N2CCOCC2)cc2ccccc12,63.8 µM
17,Cc1ccsc1C(=O)Nc1nnc(-c2ccco2)o1,9.04 µM
18,O=C(N[C@H]1CC[C@H](CCn2cc(-c3ccccn3)nn2)O[C@@H]1CO)c1ccccc1,13 µM
19,COc1ccc(C2=Nn3c(nnc3-c3ccccn3)SC2)cc1,11.2 µM
20,N#Cc1ccsc1NC(=O)c1ccccn1,21.9 µM
21,Cc1ccc(S(=O)(=O)CCC(=O)Nc2nc(-c3ccccn3)cs2)cc1,10.5 µM
22,O=c1oc2c3c4c(cc2s1)CCCN4CCC3,26.1 µM
23,Clc1ccc(-c2ccc(CNCc3ccccn3)o2)cc1,20 µM
24,O=C(Cc1ccccc1)Nc1nnc(-c2ccco2)o1,56.9 µM

row,Compound,AC50
1,Cc1[nH]n(-c2ccccc2)c(=O)c1/C=N\NC(=O)C1COc2ccccc2O1 (configuration not stated),17.4 µM
2,CCCCCOc1ccc(NC(=O)CSc2cccc3cccnc23)cc1,9.17 µM
3,COc1cccc(/C=N/n2c(-c3n[nH]c4c3CCC4)n[nH]c2=S)c1O,28.7 µM
4,COc1cc(OC)c(C(=O)OCC(=O)Nc2nnc(-c3ccccc3)o2)cc1OC,19 µM
5,O=c1cc(N/N=C/c2ccccc2)[nH]c(=O)[nH]1,31.8 µM
6,Cc1cccc(NC(=O)CSc2cccc3cccnc23)c1,21.8 µM
7,Cc1ccccc1CSc1nnc(-c2ccccn2)n1N,31.7 µM
8,CC(Oc1cccc(Cl)c1)C(=O)Nc1nc(-c2ccccn2)cs1 (configuration not stated),18 µM
9,c1ccc(-c2nnc(-c3ccccn3)nc2Nc2nc3ccccc3s2)cc1,0.509 µM
10,O=C(CC(=O)N/N=C/c1ccccc1O)NCc1cccnc1,32.8 µM
11,Cc1[nH][nH]c(=O)c1C(c1ccc(-c2ccc(C(=O)O)cc2)o1)c1c(C)[nH][nH]c1=O,64.1 µM
12,COc1ccc(NC(=O)CSc2ccc3nnc(-c4ccccn4)n3n2)cc1,26.2 µM
13,c1ccc(CNc2nc(-c3ccccn3)nc3ccccc23)cc1,11.4 µM
14,c1ccc(-c2nnc(-c3ccccn3)nc2N2CCN(c3ccncc3)CC2)cc1,< 0.5 µM
15,CCc1cc(C(=O)Nc2nc(-c3ccccn3)cs2)sc1C,22.9 µM
16,Brc1ccc(OCc2nc(-c3ccccn3)n[nH]2)cc1,3.6 µM
17,Cc1cc(C)c(NC(=O)CSc2nnc(-c3ccccn3)n2N)c(Cl)c1,37.1 µM
18,CCCCn1c(NC(=O)c2ccco2)c(C(=O)OCC)c2nc3ccccc3nc21,21.9 µM
19,Cc1ccc(C2(C)NC(=O)N(CC(=O)Nc3nc(-c4ccccn4)cs3)C2=O)cc1 (configuration not stated),4.67 µM
20,c1ccc(-c2nnc(-c3ccccn3)nc2N2CCC(C3CCCCC3)C2)cc1 (configuration not stated),2.68 µM
21,Oc1ccc(CN2CCN(Cc3ccccc3)CC2)c2cccnc12,2.41 µM

# Source: PubChem BioAssay AID651703 (Broad Institute, 2012)
